As a reminder, the Km is the concentration of substrate that gives half-maximal velocity.

Like-named read-outs stand apart in the source and are kept apart here.

The text below walks through data of US5116748A, “Process for the production of L-alanine dehydrogenase from 78-3 FERM BP-2517” (Toyo Jozo Kabushiki Kaisha, priority 1988, dated 1992).

The subject of this test is L-alanine dehydrogenase from Sporolactobacillus sp. 78-3 (FERM BP-2517). The experiment in a line: Km-Value of L-alanine dehydrogenase (reductive amination, decrease of NADH at 340 nm). Type of test: biochemical. The following applies: purified enzyme. As to the method:
Enzyme activity is measured by the following assay method:
The reaction mixture, 1 ml, in a 1 ml quartz cell is pre-incubated at 37° C. for 5 mins. Dilute enzyme solution, 0.02 ml with 50 mM triethanolamine buffer (pH 8.5) is added thereto and the mixture is stirred to initiate the reaction. Decrease of NADH is measured photometrically at 340 nm during the reaction. Enzyme activity is calculated by the following equation on the linear part of the curve: [formula] wherein T=reaction time (min.); X=dilution ratio.

In the case of `NC(=O)C1=CN([C@@H]2O[C@H](COP(=O)(O)OP(=O)(O)OC[C@H]3O[C@@H](n4cnc5c(N)ncnc54)[C@H](O)[C@@H]3O)[C@@H](O)[C@H]2O)C=CC1` [NADH], the Km (coenzyme NADH, read-out: Km-Value (NADH)) is 0.011 mM.

In the case of `N` [NH4^+], under “substrate NH4+, read-out: Km-Value (NH4+)”, the Km was determined as 20 mM.
